Measured values taken from ChEMBL document CHEMBL3421620, “A facile synthesis of novel miconazole analogues and the evaluation of their antifungal activity” (2015).

What was measured:
Format in all cases: functional
[1] = Antifungal activity against Trichosporon cutaneum ATCC 28592 by broth microdilution method; conditions: Cutaneotrichosporon cutaneum
Yarrowia lipolytica = assay: Antifungal activity against Candida lipolytica by broth microdilution method
Cyberlindnera jadinii = assay: Antifungal activity against Candida utilis ATCC 9226 by broth microdilution method; conditions: Williopsis jadinii
Nakaseomyces glabratus = assay: Antifungal activity against Candida glabrata by broth microdilution method
Candida albicans [2] = assay: Antifungal activity against Candida albicans Strain 22 by broth microdilution method
Candida albicans [3] = assay: Antifungal activity against Candida albicans Strain 19 by broth microdilution method
Aspergillus fumigatus = assay: Antifungal activity against Aspergillus fumigatus 16907 by broth microdilution method
Candida albicans [4] = assay: Antifungal activity against Candida albicans Strain 4 by broth microdilution method
Mucor hiemalis = assay: Antifungal activity against Mucor hiemalis ATCC 8690 by broth microdilution method
Candida parapsilosis = assay: Antifungal activity against Candida parapsilosis by broth microdilution method; conditions: Lodderomyces parapsilosis
Candida albicans [5] = assay: Antifungal activity against Candida albicans Strain 3 by broth microdilution method
Candida albicans [6] = assay: Antifungal activity against Candida albicans Strain 29 by broth microdilution method
Candida albicans [7] = assay: Antifungal activity against Candida albicans Strain 6 by broth microdilution method
Pichia kudriavzevii = assay: Antifungal activity against Candida krusei by broth microdilution method
Candida albicans [8] = assay: Antifungal activity against Candida albicans Strain 27 by broth microdilution method
Candida albicans [9] = assay: Antifungal activity against Candida albicans Strain 20 by broth microdilution method
Candida albicans [10] = assay: Antifungal activity against Candida albicans Strain 14 by broth microdilution method
Candida albicans [11] = assay: Antifungal activity against Candida albicans Strain 15 by broth microdilution method
Candida albicans [12] = assay: Antifungal activity against Candida albicans Strain 28 by broth microdilution method
Candida albicans [13] = assay: Antifungal activity against Candida albicans Strain 9 by broth microdilution method
Candida albicans [14] = assay: Antifungal activity against Candida albicans Strain 13 by broth microdilution method
Candida albicans [15] = assay: Antifungal activity against Candida albicans Strain 21 by broth microdilution method
Candida albicans [16] = assay: Antifungal activity against Candida albicans Strain 24 by broth microdilution method
Candida albicans [17] = assay: Antifungal activity against Candida albicans Strain 7 by broth microdilution method
Candida albicans [18] = assay: Antifungal activity against Candida albicans ATCC 10231 by broth microdilution method
Candida albicans [19] = assay: Antifungal activity against Candida albicans Strain 2 by broth microdilution method
Candida albicans [20] = assay: Antifungal activity against Candida albicans Strain 11 by broth microdilution method
Rhizopus arrhizus = assay: Antifungal activity against Rhizopus oryzae ATCC 10329 by broth microdilution method
Candida albicans [21] = assay: Antifungal activity against Candida albicans Strain 25 by broth microdilution method
Candida albicans [22] = assay: Antifungal activity against Candida albicans Strain 23 by broth microdilution method
Candida albicans [23] = assay: Antifungal activity against Candida albicans Strain 12 by broth microdilution method
Candida tropicalis = assay: Antifungal activity against Candida tropicalis ATCC 13803 by broth microdilution method
Candida albicans [24] = assay: Antifungal activity against Candida albicans Strain 1 by broth microdilution method
Candida albicans [25] = assay: Antifungal activity against Candida albicans Strain 16 by broth microdilution method
Candida albicans [26] = assay: Antifungal activity against Candida albicans Strain 18 by broth microdilution method
Candida albicans [27] = assay: Antifungal activity against Candida albicans Strain 5 by broth microdilution method
Candida albicans [28] = assay: Antifungal activity against Candida albicans Strain 17 by broth microdilution method
Candida albicans [29] = assay: Antifungal activity against Candida albicans Strain 8 by broth microdilution method
Candida albicans [30] = assay: Antifungal activity against Candida albicans Strain 10 by broth microdilution method
Candida albicans [31] = assay: Antifungal activity against Candida albicans Strain 26 by broth microdilution method
Kluyveromyces marxianus = assay: Antifungal activity against Candida pseudotropicalis by broth microdilution method

Measured: MIC

CCC(C)n1ncn(-c2ccc(N3CCN(c4ccc(OCC5COC(Cn6cncn6)(c6ccc(Cl)cc6Cl)O5)cc4)CC3)cc2)c1=O (stereo not drawn) [ITRACONAZOLE]
0.25 µg/mL: Nakaseomyces glabratus | Candida parapsilosis | Kluyveromyces marxianus
0.5 µg/mL: Cyberlindnera jadinii
0.03 µg/mL: Candida albicans [2] | Candida albicans [4] | Candida albicans [5] | Candida albicans [12] | Candida albicans [16] | Candida albicans [26] | Candida albicans [29]
> 16 µg/mL: Mucor hiemalis | Rhizopus arrhizus
8 µg/mL: [1]
0.12 µg/mL: Yarrowia lipolytica | Candida albicans [6] | Candida albicans [13] | Candida albicans [15] | Candida albicans [21] | Candida albicans [23] | Candida albicans [28] | Candida albicans [31]
1 µg/mL: Aspergillus fumigatus | Pichia kudriavzevii
0.06 µg/mL: all other assays above

O=C(O)C(OC(Cn1ccnc1)c1ccc(Cl)cc1Cl)c1ccccc1Cl (stereo not drawn)
8 µg/mL: Aspergillus fumigatus
> 16 µg/mL: [1] | Mucor hiemalis | Rhizopus arrhizus
0.5 µg/mL: Cyberlindnera jadinii | Candida albicans [6] | Pichia kudriavzevii | Candida albicans [11] | Candida albicans [12] | Candida albicans [13] | Candida albicans [15] | Candida tropicalis | Candida albicans [29]
1 µg/mL: Yarrowia lipolytica | Nakaseomyces glabratus | Candida parapsilosis | Kluyveromyces marxianus
0.06 µg/mL: Candida albicans [18]
0.12 µg/mL: Candida albicans [2] | Candida albicans [5] | Candida albicans [7] | Candida albicans [9] | Candida albicans [10] | Candida albicans [16] | Candida albicans [22] | Candida albicans [26]
0.25 µg/mL: all other assays above

COC(=O)c1ccc(COC(Cn2ccnc2)c2ccc(Cl)cc2Cl)cc1 (stereo not drawn)
0.06 µg/mL: Candida albicans [2] | Candida albicans [7] | Candida albicans [8] | Candida albicans [10] | Candida albicans [14] | Candida albicans [18] | Candida albicans [22] | Candida albicans [26]
0.5 µg/mL: Kluyveromyces marxianus
> 16 µg/mL: Mucor hiemalis | Rhizopus arrhizus
4 µg/mL: Aspergillus fumigatus
8 µg/mL: [1]
0.25 µg/mL: Cyberlindnera jadinii | Nakaseomyces glabratus | Candida albicans [6] | Candida albicans [13]
0.12 µg/mL: all other assays above
